Patent publication US20160220552A1, “FORMULATIONS FOR CGRP RECEPTOR ANTAGONISTS” (MERCK SHARP & DOHME CORP., priority 2013, published 2016)

Tests used:
[1] = clinical trials; cited from earlier work
[2] = Permeability of Compound I; assay type: in vitro ADME; conditions: not told
[3] = BCS classification / solubility of Compound I; assay type: physicochemical
[4] = control group; cited from earlier work

| SMILES | effectiveness in treating migraine [1] | Papp [2] [×10⁻⁶ cm/s] | BCS Class [3] | solubility [3] | prevention of headache induced by CGRP infusion [4] |
| --- | --- | --- | --- | --- | --- |
| O=C(N[C@@H]1CC[C@@H](c2cccc(F)c2F)CN(CC(F)(F)F)C1=O)N1CCC(n2c(=O)[nH]c3ncccc32)CC1 [telcagepant] | shown antimigraine effectiveness | – | – | – | – |
| C[C@@H]1[C@H](c2ccccc2)C[C@H](NC(=O)c2cnc3c(c2)C[C@@]2(C3)C(=O)Nc3ncccc32)C(=O)N1CC(F)(F)F [Compound I, (S)—N-((3S,5S,6R)-6-methyl-2-oxo-5-phenyl-1-(2,2,2-trifluoroethyl)piperidine-3-yl)-2′-oxo-1′,2′,5,7-tetrahydrospiro[cyclopenta[b]pyridine-6,3′-pyrrolo[2,3-b]pyridine]-3-carboxamide trihydrate] | – | 16.6 | BCS Class 4 | low solubility | – |
| NCCCC[C@H](NC(=O)[C@@H](Cc1cc(Br)c(O)c(Br)c1)NC(=O)N1CCC(N2Cc3ccccc3NC2=O)CC1)C(=O)N1CCN(c2ccncc2)CC1 [BIBN4096BS] | effective in treating acute attacks of migraine | – | – | – | able to prevent headache induced by CGRP infusion |
